Laboratory results: ChEMBL document CHEMBL1201862, “PubChem BioAssay data set” (2004)
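A five-concentration, 48-hour dose response in 96-well plates underlies each endpoint, interpolated linearly between surrounding concentrations. GI50 = concentration required for 50% inhibition of growth.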 Active and inactive are the calls of the source. No stated cut-off is given here; in the data, active = GI50 up to about 1.1 µM and inactive = higher.

Assays:
Test in all cases: inhibition of tumour cell growth, NCI panel, 48 h
786-0 = system: 786-0
A498 = system: A498
A549 = system: A549
ACHN = system: ACHN
BT-549 = system: BT-549
CAKI-1 = system: CAKI-1
CCRF-CEM = system: CCRF-CEM
COLO 205 = system: COLO 205
DU-145 = system: DU-145
EKVX = system: EKVX
HCC 2998 = system: HCC 2998
HCT-116 = system: HCT-116
HCT-15 = system: HCT-15
HL-60 = system: HL-60
HOP-62 = system: HOP-62
HOP-92 = system: HOP-92
HT-29 = system: HT-29
Hs-578T = system: Hs-578T
IGROV-1 = system: IGROV-1
K562 = system: K562
KM12 = system: KM12
LOX IMVI = system: LOX IMVI
M14 = system: M14
MCF7 = system: MCF7
MDA-MB-231 = system: MDA-MB-231
MDA-MB-435 = system: MDA-MB-435
MDA-N = system: MDA-N
MOLT-4 = system: MOLT-4
Malme-3M = system: Malme-3M
NCI-H226 = system: NCI-H226
NCI-H23 = system: NCI-H23
NCI-H460 = system: NCI-H460
NCI-H522 = system: NCI-H522
NCI/ADR-RES = system: NCI/ADR-RES
OVCAR-3 = system: OVCAR-3
OVCAR-4 = system: OVCAR-4
OVCAR-5 = system: OVCAR-5
OVCAR-8 = system: OVCAR-8
PC-3 = system: PC-3
RPMI-8226 = system: RPMI-8226
RXF 393 = system: RXF 393
SF-268 = system: SF-268
SF-295 = system: SF-295
SF-539 = system: SF-539
SK-MEL-28 = system: SK-MEL-28
SK-MEL-2 = system: SK-MEL-2
SK-MEL-5 = system: SK-MEL-5
SK-OV-3 = system: SK-OV-3
SN12C = system: SN12C
SNB-19 = system: SNB-19
SNB-75 = system: SNB-75
SR = system: SR
SW-620 = system: SW-620
T47D = system: T47D
TK-10 = system: TK-10
UACC-257 = system: UACC-257
UACC-62 = system: UACC-62
UO-31 = system: UO-31
U-251 = system: U-251

**Q.** Which results are given for Cc1ccc([N+](=O)[O-])cc1S(=O)(=O)Nc1ccc(C2=NOC(c3cccs3)C2)cc1 (configuration not stated)?
**A.** GI50 (786-0): 17.5 µM (inactive); GI50 (A498): 4.56 µM (inactive); GI50 (A549): 12.1 µM (inactive); GI50 (ACHN): 14.8 µM (inactive); GI50 (BT-549): 13.2 µM (inactive); GI50 (CAKI-1): 18.7 µM (inactive); GI50 (CCRF-CEM): 8.93 µM (inactive); GI50 (COLO 205): 7.8 µM (inactive); GI50 (DU-145): 17.6 µM (inactive); GI50 (EKVX): 19.9 µM (inactive); GI50 (HCC 2998): 9.25 µM (inactive); GI50 (HCT-116): 11.1 µM (inactive); GI50 (HCT-15): 4.75 µM; GI50 (HL-60): 3.55 µM (inactive); GI50 (HOP-62): 5.79 µM (inactive); GI50 (HOP-92): 19.9 µM (inactive); GI50 (HT-29): 12.5 µM (inactive); GI50 (Hs-578T): 20 µM (inactive); GI50 (IGROV-1): 11.1 µM (inactive); GI50 (K562): 3.58 µM (inactive); GI50 (KM12): 7.18 µM (inactive); GI50 (LOX IMVI): 11 µM (inactive); GI50 (M14): 5.98 µM (inactive); GI50 (MCF7): 5.73 µM (inactive); GI50 (MDA-MB-231): 18.7 µM (inactive); GI50 (MDA-MB-435): 2.53 µM (inactive); GI50 (MDA-N): 2.74 µM (inactive); GI50 (MOLT-4): 4.04 µM (inactive); GI50 (Malme-3M): 13.9 µM (inactive); GI50 (NCI-H226): 25.1 µM (inactive); GI50 (NCI-H23): 17.6 µM (inactive); GI50 (NCI-H460): 9.66 µM (inactive); GI50 (NCI-H522): 3.2 µM (inactive); GI50 (NCI/ADR-RES): 4.13 µM (inactive); GI50 (OVCAR-3): 5.19 µM (inactive); GI50 (OVCAR-4): 9.42 µM (inactive); GI50 (OVCAR-5): 32.3 µM (inactive); GI50 (OVCAR-8): 22.9 µM (inactive); GI50 (PC-3): 8.93 µM (inactive); GI50 (RPMI-8226): 10.4 µM (inactive); GI50 (RXF 393): 5.02 µM (inactive); GI50 (SF-268): 18.4 µM (inactive); GI50 (SF-295): 3.9 µM (inactive); GI50 (SF-539): 13.5 µM (inactive); GI50 (SK-MEL-28): 20.1 µM (inactive); GI50 (SK-MEL-2): 4.81 µM (inactive); GI50 (SK-MEL-5): 7.66 µM (inactive); GI50 (SK-OV-3): 14.2 µM (inactive); GI50 (SN12C): 17.9 µM (inactive); GI50 (SNB-19): 13.8 µM (inactive); GI50 (SNB-75): 16.1 µM (inactive); GI50 (SR): 2.05 µM (inactive); GI50 (SW-620): 7.5 µM (inactive); GI50 (T47D): 12.8 µM (inactive); GI50 (TK-10): 16.4 µM (inactive); GI50 (UACC-257): 16.9 µM (inactive); GI50 (UACC-62): 3.78 µM (inactive); GI50 (UO-31): 6.25 µM (inactive)

**Q.** How did the GI50 (786-0) turn out when CCc1nc(N)nc(N)c1-c1ccc2c(c1)nnn2CCc1ccccc1 was run?
**A.** Its GI50 is 5.89 µM (inactive).

**Q.** And the GI50 (A498)?
**A.** The GI50 was 24.1 µM (inactive).

**Q.** What about the GI50 (A549) of the same compound?
**A.** Its GI50 is 3.09 µM (inactive).

**Q.** And the GI50 (ACHN)?
**A.** Its GI50 is 7.23 µM (inactive).

**Q.** And the GI50 (BT-549)?
**A.** Its GI50 is 22.9 µM (inactive).

**Q.** And the GI50 (CAKI-1)?
**A.** Its GI50 is 11.2 µM (inactive).

**Q.** And the GI50 (CCRF-CEM)?
**A.** The GI50 was 7.23 µM (inactive).

**Q.** What about the GI50 (COLO 205) of the same compound?
**A.** The GI50 was 14.9 µM (inactive).

**Q.** What about the GI50 (DU-145) of the same compound?
**A.** The GI50 was 23.9 µM (inactive).

**Q.** And the GI50 (EKVX)?
**A.** The GI50 was 21.8 µM (inactive).

**Q.** And the GI50 (HCC 2998)?
**A.** The GI50 was 13.9 µM (inactive).

**Q.** And the GI50 (HCT-116)?
**A.** Its GI50 is 2.36 µM (inactive).

**Q.** What about the GI50 (HCT-15) of the same compound?
**A.** The GI50 was 3.09 µM.

**Q.** And the GI50 (HL-60)?
**A.** Its GI50 is 3.02 µM (inactive).

**Q.** And the GI50 (HOP-62)?
**A.** Its GI50 is 22.2 µM (inactive).

**Q.** What about the GI50 (HOP-92) of the same compound?
**A.** The GI50 was 38.4 µM (inactive).

**Q.** And the GI50 (HT-29)?
**A.** The GI50 was 3.53 µM (inactive).

**Q.** And the GI50 (Hs-578T)?
**A.** The GI50 was 30.7 µM (inactive).

**Q.** What about the GI50 (IGROV-1) of the same compound?
**A.** Its GI50 is 4.72 µM (inactive).

**Q.** And the GI50 (K562)?
**A.** Its GI50 is 1.55 µM (inactive).

**Q.** And the GI50 (KM12)?
**A.** The GI50 was 14.1 µM (inactive).

**Q.** What about the GI50 (LOX IMVI) of the same compound?
**A.** The GI50 was 5.16 µM (inactive).

**Q.** What about the GI50 (M14) of the same compound?
**A.** Its GI50 is 4.66 µM (inactive).

**Q.** What about the GI50 (MCF7) of the same compound?
**A.** Its GI50 is 21.1 µM (inactive).

**Q.** And the GI50 (MDA-MB-231)?
**A.** Its GI50 is 26.1 µM (inactive).

**Q.** And the GI50 (MDA-MB-435)?
**A.** The GI50 was 6.52 µM (inactive).

**Q.** And the GI50 (MDA-N)?
**A.** Its GI50 is 6.1 µM (inactive).

**Q.** What about the GI50 (MOLT-4) of the same compound?
**A.** Its GI50 is 8.91 µM (inactive).

**Q.** What about the GI50 (Malme-3M) of the same compound?
**A.** The GI50 was 19.5 µM (inactive).

**Q.** And the GI50 (NCI-H226)?
**A.** The GI50 was 38.6 µM (inactive).

**Q.** And the GI50 (NCI-H23)?
**A.** The GI50 was 12.6 µM (inactive).

**Q.** What about the GI50 (NCI-H460) of the same compound?
**A.** Its GI50 is 2.32 µM (inactive).

**Q.** What about the GI50 (NCI-H522) of the same compound?
**A.** Its GI50 is 5.98 µM (inactive).

**Q.** What about the GI50 (NCI/ADR-RES) of the same compound?
**A.** Its GI50 is 13.7 µM (inactive).

**Q.** What about the GI50 (OVCAR-3) of the same compound?
**A.** Its GI50 is 16.6 µM (inactive).

**Q.** What about the GI50 (OVCAR-4) of the same compound?
**A.** Its GI50 is 20.8 µM (inactive).

**Q.** What about the GI50 (OVCAR-5) of the same compound?
**A.** The GI50 was > 60.5 µM (inactive).

**Q.** What about the GI50 (OVCAR-8) of the same compound?
**A.** The GI50 was 4.95 µM (inactive).

**Q.** What about the GI50 (PC-3) of the same compound?
**A.** Its GI50 is 4.63 µM (inactive).

**Q.** And the GI50 (RPMI-8226)?
**A.** The GI50 was 13.6 µM (inactive).

**Q.** And the GI50 (RXF 393)?
**A.** Its GI50 is 26.4 µM (inactive).

**Q.** What about the GI50 (SF-268) of the same compound?
**A.** Its GI50 is 10.3 µM (inactive).

**Q.** What about the GI50 (SF-295) of the same compound?
**A.** Its GI50 is 8.3 µM (inactive).

**Q.** What about the GI50 (SF-539) of the same compound?
**A.** The GI50 was 21.3 µM (inactive).

**Q.** And the GI50 (SK-MEL-28)?
**A.** The GI50 was 31.4 µM (inactive).

**Q.** What about the GI50 (SK-MEL-2) of the same compound?
**A.** The GI50 was 28.2 µM (inactive).

**Q.** And the GI50 (SK-MEL-5)?
**A.** Its GI50 is 8.53 µM (inactive).

**Q.** And the GI50 (SK-OV-3)?
**A.** The GI50 was 45.4 µM (inactive).

**Q.** What about the GI50 (SN12C) of the same compound?
**A.** The GI50 was 22.5 µM (inactive).

**Q.** And the GI50 (SNB-19)?
**A.** Its GI50 is 23.9 µM (inactive).

**Q.** And the GI50 (SNB-75)?
**A.** The GI50 was 15.8 µM (inactive).

**Q.** What about the GI50 (SR) of the same compound?
**A.** Its GI50 is 5.18 µM (inactive).

**Q.** And the GI50 (SW-620)?
**A.** Its GI50 is 4.92 µM (inactive).

**Q.** What about the GI50 (T47D) of the same compound?
**A.** The GI50 was 23.4 µM (inactive).

**Q.** And the GI50 (TK-10)?
**A.** The GI50 was 35.4 µM (inactive).

**Q.** What about the GI50 (U-251) of the same compound?
**A.** Its GI50 is 7.69 µM (inactive).

**Q.** And the GI50 (UACC-257)?
**A.** The GI50 was 22.2 µM (inactive).

**Q.** And the GI50 (UACC-62)?
**A.** Its GI50 is 7.01 µM (inactive).

**Q.** And the GI50 (UO-31)?
**A.** The GI50 was 16.3 µM (inactive).
